According to patent US20060211751A1, “Zolmitriptan crystal forms” (priority 2004, published 2006):

Experiments:
Format in all cases: physicochemical
[1] = Transformation by pressing (crystal form before and after pressing); details: for Crystal Form after pressing: 100 mg pressed with approximately 1300 psi during 2 minutes
[2] = Transformation by slurry in other solvents (n-hexane, toluene, water) and drying, form determined by XRD
From the text: Similarly to example 6 Zolmitriptan samples were slurried from other solvents or solvent systems after dissolution and precipitation from a specific solvent.

[3] = Transformation by heating and slurry in acetone-water mixture (20:80), form determined by XRD
Experimental: A sample of zolmitriptan (6 g) was placed in a glass flask with solvent and heated to reflux until the zolmitriptan dissolved. The zolmitriptan was cooled to room temperature while stirring, and left at 4° C. overnight. The mixture was filtered and the solid obtained was divided in half. One half of the solid was labeled “wet” and the other half was dried in a vacuum oven at about 60° C.-70° C. overnight and labeled as “dried.”
One third of the wet portion of each sample was separated for XRD, and marked as “_w” . One third of the dried portion of each sample was separated for XRD, and marked as “_d” . For example, “1w” refers to the wet portion of sample 1 analyzed by XRD before slurry in acetone/water, and “1d” refers to the dried portion of sample 1 analyzed by XRD before slurry in acetone/water.
The remaining two-thirds of the wet sample was weighed, placed in a glass flask containing 10 v/w of acetone:water (20:80), stirred for about 30 minutes at room temperature, and left at about 4° C. overnight. The mixture was filtered and the solid obtained was divided in half. One half was labeled “_w-ac-w.” The other half was dried in a vacuum oven at about 60° C.-70° C. overnight, and labeled “_w-ac-d.” For example, “1w-ac-w” refers to the portion of the wet sample resulting from slurry in acetone/water, while “1w-ac-d” refers to the portion of the wet sample resulting from slurry in acetone/water that was dried.
Likewise, the remaining two-thirds of the dry sample was weighed, placed in a glass flask containing 10 v/w of acetone:water (20:80), stirred for about 30 minutes at room temperature, and left at about 4° C. overnight. The mixture was filtered and the solid obtained was divided in half. One half was labeled “_d-ac-w.” The other half was dried in a vacuum oven at about 60° C.-70° C. overnight, and labeled “_d-ac-d.” For example, “1d-ac-w” refers to the portion of the dry sample resulting from slurry in acetone/water, while “1d-ac-d” refers to the portion of the dry sample resulting from slurry in acetone/water that was then dried.

[4] = Polymorphic stability when maintained at room temperature
[5] = Transformation of zolmitriptan crystal forms by heating in a conventional oven, form determined by XRD; details: about 1.5 to 2 hours, conventional oven, XRD
Experimental: Zolmitriptan (0.5 g) crystalline forms were heated in a conventional oven for a period of about 1.5 to 2 hours at different temperatures. The crystal form of the samples was determined by XRD before and after heating.

[6] = Water, dried 63 °C under reduced pressure
[7] = immersed in 10 v/w Toluene, filtered, sucked ½ hour on Buchner
[8] = immersed in 10 v/w Water, filtered, sucked ½ hour on Buchner
[9] = immersed in 10 v/w n-Hexane, filtered, sucked ½ hour on Buchner
[10] = Toluene, dried 63 °C under reduced pressure
[11] = n-Hexane, dried 63 °C under reduced pressure

In the case of `CN(C)CCc1c[nH]c2ccc(C[C@H]3COC(=O)N3)cc12` [Form M], the “Crystal Form after pressing” value [1] is reported as “Form M” and the “transformation to other crystal form on pressing” value (“transformation” for short) [1] is reported as “not transform to other crystal form”.
For `CN(C)CCc1c[nH]c2ccc(C[C@H]3COC(=O)N3)cc12` [Form F], the “Crystal Form after pressing” value [1] was “Form F” and the “transformation” value [1] was “not transform to other crystal form”.
In the case of `CN(C)CCc1c[nH]c2ccc(C[C@H]3COC(=O)N3)cc12` [Form R], the “XRD sample (form after treatment)” value [2, 6] is reported as “Form A”, the “XRD sample (form after treatment)” value [2, 7] is reported as “Form K” and the “XRD sample (form after treatment)” value [2, 8] is reported as “Form A”. For the same compound, the “XRD sample (form after treatment)” value [2, 9] was “Form D” and the “XRD sample (form after treatment)” value ([2]; n-Hexane, dried 63 °C under reduced pressure, listed as R) was “Essent.Am D”.
With `CN(C)CCc1c[nH]c2ccc(C[C@H]3COC(=O)N3)cc12` [Sample 3] the “Resulting Crystal Form” value ([3]; _w-ac-w: wet sample slurried in 10 v/w acetone:water (20:80), 30 min room temperature, 4 °C overnight, filtered, not dried, listed as 3w-ac-w) was “Form A” and the “Resulting Crystal Form” value ([3]; _w: wet portion after crystallization, before slurry in acetone/water, listed as 3w) was “Form G”.
In the case of `CN(C)CCc1c[nH]c2ccc(C[C@H]3COC(=O)N3)cc12` [Sample 1], the “Resulting Crystal Form” value ([3]; _d-ac-d: dried sample slurried in acetone:water (20:80), then dried in vacuum oven 60-70 °C overnight) is reported as “Form A”, the “Resulting Crystal Form” value ([3]; _w-ac-w: wet sample slurried in 10 v/w acetone:water (20:80), 30 min room temperature, 4 °C overnight, filtered, not dried, listed as 1w-ac-w) is reported as “Form A” and the “Resulting Crystal Form” value ([3]; _w: wet portion after crystallization, before slurry in acetone/water, listed as 1w) is reported as “Form A”.
With `CN(C)CCc1c[nH]c2ccc(C[C@H]3COC(=O)N3)cc12` [Sample 2] the “Resulting Crystal Form” value ([3]; _d-ac-w: dried sample slurried in 10 v/w acetone:water (20:80), 30 min room temperature, 4 °C overnight, filtered, not dried) was “Form A”, the “Resulting Crystal Form” value ([3]; _d: portion dried in vacuum oven 60-70 °C overnight, before slurry in acetone/water) was “Form A” and the “Resulting Crystal Form” value ([3]; _w-ac-d: wet sample slurried in acetone:water (20:80), then dried in vacuum oven 60-70 °C overnight) was “Form A”. The “Resulting Crystal Form” value ([3]; _w-ac-w: wet sample slurried in 10 v/w acetone:water (20:80), 30 min room temperature, 4 °C overnight, filtered, not dried, listed as 2w-ac-w) was “Form A” and the “Resulting Crystal Form” value ([3]; _w: wet portion after crystallization, before slurry in acetone/water, listed as 2w) was “Form Q”.
With `CN(C)CCc1c[nH]c2ccc(C[C@H]3COC(=O)N3)cc12` [Form J] the “polymorphic stability (conversion to Form A)” value (“polymorphic stability” for short) [4] was “do not convert to Form A”, the “Crystal Form after pressing” value [1] was “Form J” and the “transformation” value [1] was “not transform to other crystal form”.
In the case of `CN(C)CCc1c[nH]c2ccc(C[C@H]3COC(=O)N3)cc12` [Sample 5], the “Resulting Crystal Form” value ([3]; _w-ac-w: wet sample slurried in 10 v/w acetone:water (20:80), 30 min room temperature, 4 °C overnight, filtered, not dried, listed as 5w-ac-w) is reported as “Form A” and the “Resulting Crystal Form” value ([3]; _w: wet portion after crystallization, before slurry in acetone/water, listed as 5w) is reported as “Form D”.
In the case of `CN(C)CCc1c[nH]c2ccc(C[C@H]3COC(=O)N3)cc12` [Form E], the “XRD sample (form after treatment)” value ([2]; Toluene, dried 63 °C under reduced pressure, listed as E) is reported as “Form K”, the “XRD sample (form after treatment)” value ([2]; immersed in 10 v/w Water, filtered, sucked ½ hour on Buchner, listed as E) is reported as “Form A” and the “XRD sample (form after treatment)” value [2, 9] is reported as “Form D”. The “XRD sample (form after treatment)” value ([2]; n-Hexane, dried 63 °C under reduced pressure, listed as E) was “Form A + ˜30% D”.
For `CN(C)CCc1c[nH]c2ccc(C[C@H]3COC(=O)N3)cc12` [Form P], the “polymorphic stability” value [4] was “do not convert to Form A”, the “Crystal Form after pressing” value [1] was “Form P” and the “transformation” value [1] was “not transform to other crystal form”.
In the case of `CN(C)CCc1c[nH]c2ccc(C[C@H]3COC(=O)N3)cc12` [Form D], the “polymorphic stability” value [4] is reported as “do not convert to Form A”, the “Crystal Form after pressing” value [1] is reported as “Form D” and the “transformation” value [1] is reported as “not transform to other crystal form”.
For `CN(C)CCc1c[nH]c2ccc(C[C@H]3COC(=O)N3)cc12` [Form S], the “polymorphic stability” value [4] was “do not convert to Form A”, the “XRD sample (form after treatment)” value [2, 10] was “Form A + ˜10% K” and the “XRD sample (form after treatment)” value [2, 6] was “Form A”. For the same compound, the “XRD sample (form after treatment)” value [2, 7] was “Form K”, the “XRD sample (form after treatment)” value [2, 8] was “Form A + ˜10% D” and the “XRD sample (form after treatment)” value [2, 9] was “Form D”. The “XRD sample (form after treatment)” value [2, 11] was “Form A + ˜20% D”, the “Crystal Form after pressing” value [1] was “Form S” and the “transformation” value [1] was “not transform to other crystal form”.
For `CN(C)CCc1c[nH]c2ccc(C[C@H]3COC(=O)N3)cc12` [Sample 8], the “Resulting Crystal Form” value ([3]; _w-ac-w: wet sample slurried in 10 v/w acetone:water (20:80), 30 min room temperature, 4 °C overnight, filtered, not dried, listed as 8w-ac-w) was “Form K + ˜30% A” and the “Resulting Crystal Form” value ([3]; _w: wet portion after crystallization, before slurry in acetone/water, listed as 8w) was “Form K”.
With `CN(C)CCc1c[nH]c2ccc(C[C@H]3COC(=O)N3)cc12` [Form H] the “polymorphic stability” value [4] was “do not convert to Form A”, the “Crystal Form after pressing” value [1] was “Form H” and the “transformation” value [1] was “not transform to other crystal form”.
With `CN(C)CCc1c[nH]c2ccc(C[C@H]3COC(=O)N3)cc12` [Form G] the “polymorphic stability” value [4] was “do not convert to Form A”, the “XRD sample (form after treatment)” value [2, 10] was “Form A + ˜10% K” and the “XRD sample (form after treatment)” value [2, 6] was “Form A”. The “XRD sample (form after treatment)” value [2, 7] was “Form K”, the “XRD sample (form after treatment)” value [2, 8] was “Form A” and the “XRD sample (form after treatment)” value [2, 9] was “Form D”. The “XRD sample (form after treatment)” value [2, 11] was “Essent.Am D”, the “Crystal Form after pressing” value [1] was “Form G” and the “transformation” value [1] was “not transform to other crystal form”.
With `CN(C)CCc1c[nH]c2ccc(C[C@H]3COC(=O)N3)cc12` [Form L] the “Crystal form after heating” value ([5]; heating temp. 90 °C) was “A +”, the “Crystal Form after pressing” value [1] was “Form L” and the “transformation” value [1] was “not transform to other crystal form”.
With `CN(C)CCc1c[nH]c2ccc(C[C@H]3COC(=O)N3)cc12` [Form T] the “Crystal Form after pressing” value [1] was “Form T” and the “transformation” value [1] was “not transform to other crystal form”.
For `CN(C)CCc1c[nH]c2ccc(C[C@H]3COC(=O)N3)cc12` [Form Q], the “Crystal form after heating” value ([5]; heating temp. 60 °C) was “A +”.
For `CN(C)CCc1c[nH]c2ccc(C[C@H]3COC(=O)N3)cc12` [Sample 6], the “Resulting Crystal Form” value ([3]; _w-ac-w: wet sample slurried in 10 v/w acetone:water (20:80), 30 min room temperature, 4 °C overnight, filtered, not dried, listed as 6w-ac-w) was “Form A” and the “Resulting Crystal Form” value ([3]; _w: wet portion after crystallization, before slurry in acetone/water, listed as 6w) was “Form S”.
With `CN(C)CCc1c[nH]c2ccc(C[C@H]3COC(=O)N3)cc12` [Form I] the “polymorphic stability” value [4] was “do not convert to Form A”, the “XRD sample (form after treatment)” value [2, 10] was “Form A” and the “XRD sample (form after treatment)” value [2, 6] was “Form A”. For the same compound, the “XRD sample (form after treatment)” value [2, 7] was “Form K”, the “XRD sample (form after treatment)” value [2, 8] was “Form A” and the “XRD sample (form after treatment)” value [2, 9] was “Form D”. For the same compound, the “XRD sample (form after treatment)” value [2, 11] was “Form A”, the “Crystal Form after pressing” value [1] was “Form I” and the “transformation” value [1] was “not transform to other crystal form”.
For `CN(C)CCc1c[nH]c2ccc(C[C@H]3COC(=O)N3)cc12` [Sample 7], the “Resulting Crystal Form” value ([3]; _w-ac-w: wet sample slurried in 10 v/w acetone:water (20:80), 30 min room temperature, 4 °C overnight, filtered, not dried, listed as 7w-ac-w) was “Form K + ˜30% A” and the “Resulting Crystal Form” value ([3]; _w: wet portion after crystallization, before slurry in acetone/water, listed as 7w) was “Form K”.
For `CN(C)CCc1c[nH]c2ccc(C[C@H]3COC(=O)N3)cc12` [Sample 4], the “Resulting Crystal Form” value ([3]; _w-ac-w: wet sample slurried in 10 v/w acetone:water (20:80), 30 min room temperature, 4 °C overnight, filtered, not dried, listed as 4w-ac-w) was “Form A” and the “Resulting Crystal Form” value ([3]; _w: wet portion after crystallization, before slurry in acetone/water, listed as 4w) was “Form A”.
With `CN(C)CCc1c[nH]c2ccc(C[C@H]3COC(=O)N3)cc12` [Form O] the “Crystal Form after pressing” value [1] was “Form O” and the “transformation” value [1] was “not transform to other crystal form”.
With `CN(C)CCc1c[nH]c2ccc(C[C@H]3COC(=O)N3)cc12` [Form K] the “polymorphic stability” value [4] was “do not convert to Form A”, the “XRD sample (form after treatment)” value [2, 10] was “Form A” and the “XRD sample (form after treatment)” value [2, 6] was “Form A”. For the same compound, the “XRD sample (form after treatment)” value [2, 7] was “Form K”, the “XRD sample (form after treatment)” value [2, 8] was “Form A + ˜10% K” and the “XRD sample (form after treatment)” value [2, 9] was “Form D”. For the same compound, the “XRD sample (form after treatment)” value [2, 11] was “Form A”, the “Crystal Form after pressing” value [1] was “Form K” and the “transformation” value [1] was “not transform to other crystal form”.
